Activity calls are given as the source filed them. The rule behind the calls is not given here.
Experiments:
Prothrombin = Prothrombin (Homo sapiens, UniProt P00734); test: In vitro inhibitory activity against serine protease thrombin
[1] = target: Tissue-type plasminogen activator (Homo sapiens, UniProt P00750); test: Inhibitory activity against tissue plasminogen activator (tissue plasminogen activator)
[2] = In vitro anticoagulant activity was measured by plasma based on thrombin generation (TG) assay; format: functional
Coagulation factor X [3] = target: T1, Coagulation factor X (Homo sapiens, UniProt P00742); test: (§1) In vitro binding affinity towards factor Xa
T1 sequence (P00742 41-179 limits assumed): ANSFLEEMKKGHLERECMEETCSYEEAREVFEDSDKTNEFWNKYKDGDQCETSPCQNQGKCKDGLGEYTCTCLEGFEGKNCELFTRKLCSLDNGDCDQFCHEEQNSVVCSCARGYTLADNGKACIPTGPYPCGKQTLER
T1 sequence (P00742 235-488 limits assumed): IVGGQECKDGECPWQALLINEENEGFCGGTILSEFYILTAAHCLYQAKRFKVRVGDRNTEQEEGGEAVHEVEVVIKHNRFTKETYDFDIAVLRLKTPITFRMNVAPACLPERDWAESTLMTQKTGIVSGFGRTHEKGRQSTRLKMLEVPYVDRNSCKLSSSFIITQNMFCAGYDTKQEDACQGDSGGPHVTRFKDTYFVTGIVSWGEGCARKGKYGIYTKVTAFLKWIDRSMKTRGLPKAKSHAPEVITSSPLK

Serine protease 1 = Serine protease 1 (Homo sapiens, UniProt P07477); test: Inhibitory activity against Trypsin
Serine protease 1, sequence (P07477 whole entry): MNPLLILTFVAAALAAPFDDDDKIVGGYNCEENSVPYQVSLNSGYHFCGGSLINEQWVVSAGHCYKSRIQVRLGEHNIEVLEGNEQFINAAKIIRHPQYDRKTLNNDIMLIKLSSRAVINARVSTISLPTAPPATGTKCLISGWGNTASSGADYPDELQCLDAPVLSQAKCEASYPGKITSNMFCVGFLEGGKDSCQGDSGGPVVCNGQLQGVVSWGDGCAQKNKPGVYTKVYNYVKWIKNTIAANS

[4] = In vivo half life period after intravenous administration in rat; format: ADME, organism-based
[5] = Inhibitory activity against Kallikrein
[6] = In vitro anticoagulant activity was measured by activated partial thromboplastin time (APTT) assay; format: functional
Plasminogen = Plasminogen (Homo sapiens, UniProt P00747); test: Inhibitory activity against Plasmin
Plasminogen, sequence (P00747 97-580 limits assumed): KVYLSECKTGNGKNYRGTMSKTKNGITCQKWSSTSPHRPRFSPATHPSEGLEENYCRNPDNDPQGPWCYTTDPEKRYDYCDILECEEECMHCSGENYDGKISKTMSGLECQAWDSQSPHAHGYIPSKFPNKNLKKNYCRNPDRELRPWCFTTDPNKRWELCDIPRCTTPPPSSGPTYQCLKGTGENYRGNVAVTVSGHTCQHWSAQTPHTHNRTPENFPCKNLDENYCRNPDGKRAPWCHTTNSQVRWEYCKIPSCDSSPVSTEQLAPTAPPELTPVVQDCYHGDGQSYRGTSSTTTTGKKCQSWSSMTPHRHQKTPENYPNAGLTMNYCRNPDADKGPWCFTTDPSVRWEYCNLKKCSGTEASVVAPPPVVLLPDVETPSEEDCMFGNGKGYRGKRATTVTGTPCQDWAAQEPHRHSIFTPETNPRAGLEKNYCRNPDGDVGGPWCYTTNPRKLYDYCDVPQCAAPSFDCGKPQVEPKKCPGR
Plasminogen, sequence (P00747 581-810 limits assumed): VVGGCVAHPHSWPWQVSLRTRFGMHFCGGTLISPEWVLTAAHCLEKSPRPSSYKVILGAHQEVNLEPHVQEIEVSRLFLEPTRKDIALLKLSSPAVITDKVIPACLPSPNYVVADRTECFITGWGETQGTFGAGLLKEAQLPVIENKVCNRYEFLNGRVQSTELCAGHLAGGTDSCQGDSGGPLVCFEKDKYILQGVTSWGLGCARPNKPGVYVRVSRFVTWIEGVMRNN

[7] = target: Vitamin K-dependent protein C (Homo sapiens, UniProt P04070); test: Inhibitory activity against activated protein C (aPC)
Vitamin K-dependent protein C, sequence (P04070 43-197 limits assumed): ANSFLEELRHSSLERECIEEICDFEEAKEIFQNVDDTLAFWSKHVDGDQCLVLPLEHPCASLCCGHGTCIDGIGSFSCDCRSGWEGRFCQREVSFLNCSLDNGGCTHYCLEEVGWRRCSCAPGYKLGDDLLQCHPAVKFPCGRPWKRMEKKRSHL
Vitamin K-dependent protein C, sequence (P04070 212-461 limits assumed): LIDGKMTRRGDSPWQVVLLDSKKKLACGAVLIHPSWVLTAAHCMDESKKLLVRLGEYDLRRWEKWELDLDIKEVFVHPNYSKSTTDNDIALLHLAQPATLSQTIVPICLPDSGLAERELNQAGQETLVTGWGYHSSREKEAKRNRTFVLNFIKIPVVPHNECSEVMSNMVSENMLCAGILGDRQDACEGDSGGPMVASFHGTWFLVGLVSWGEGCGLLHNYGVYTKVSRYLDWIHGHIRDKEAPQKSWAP

[8] = In vitro anticoagulant activity was measured by prothrombin time (PT) assay; format: functional
Oryctolagus cuniculus [9] = test: In vivo plasma concentration required to inhibit thrombosis formation in rabbit; format: functional, organism-based
Oryctolagus cuniculus [10] = test: In vivo inhibition thrombosis formation in rabbit; format: functional
Coagulation factor X [11] = target: T1, Coagulation factor X; test: In vitro inhibitory activity against factor Xa
Coagulation factor X [12] = target: T1, Coagulation factor X; test: as §1; remark: listed apart in the source

Tissue-type plasminogen activator, sequence (P00750 whole entry): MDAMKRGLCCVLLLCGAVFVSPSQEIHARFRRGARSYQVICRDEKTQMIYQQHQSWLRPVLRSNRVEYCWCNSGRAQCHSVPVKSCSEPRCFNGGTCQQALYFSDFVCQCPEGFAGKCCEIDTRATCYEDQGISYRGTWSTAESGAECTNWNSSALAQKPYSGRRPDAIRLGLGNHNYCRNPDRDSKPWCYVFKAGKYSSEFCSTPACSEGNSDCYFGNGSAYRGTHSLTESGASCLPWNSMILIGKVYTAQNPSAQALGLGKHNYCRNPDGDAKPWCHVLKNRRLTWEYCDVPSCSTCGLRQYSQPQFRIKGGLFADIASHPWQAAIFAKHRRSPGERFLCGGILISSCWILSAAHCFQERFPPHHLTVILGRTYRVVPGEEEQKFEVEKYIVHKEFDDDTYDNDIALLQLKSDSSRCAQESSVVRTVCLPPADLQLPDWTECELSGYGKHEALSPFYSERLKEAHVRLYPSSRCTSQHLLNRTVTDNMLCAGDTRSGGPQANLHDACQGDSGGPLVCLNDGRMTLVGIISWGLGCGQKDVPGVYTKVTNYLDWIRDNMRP

Row | Structure (SMILES) | IC50 (Prothrombin) [nM] | IC50 (Coagulation factor X [11]) [nM] | further results
1 | N=C(N)NCCC[C@@H](NC(=O)CN1CCCC[C@H](NS(=O)(=O)Cc2ccccc2)C1=O)C(=O)c1nccs1 | 38 |  | 
2 | N=C(N)NCCC[C@@H](NS(=O)(=O)Cc1ccccc1)C(=O)NCC(=O)N[C@H](CCCNC(=N)N)C(=O)c1nccs1 | 10000 |  | IC50 [1]: 329 nM; 2x TG [2]: 0.18 µM; k on (Coagulation factor X [3]): 6.5e+06 M⁻¹ s⁻¹; IC50 (Serine protease 1): 0.8 nM; half-life [4]: 24 min; IC50 [5]: 27 nM; 2x APTT [6]: 0.5 µM; IC50 (Plasminogen): 309 nM; IC50 [7]: 6000 nM; 2x PT [8]: 6.8 µM; Plasma concentration (Oryctolagus cuniculus [9]): 0.07 µM; Inhibition (Oryctolagus cuniculus [10]): 100%
3 | N=C(N)NCCCC(NC(=O)CN1CCN(S(=O)(=O)c2cccc3nonc23)CC1=O)C(=O)c1nccs1 (stereo not drawn) | 719 | 2 | 
4 | N=C(N)NCCC[C@@H](NC(=O)CN1CCCC(CCC2CCNCC2)C1=O)C(=O)c1nccs1 (stereo partly drawn) | 12000 | 65 | 
5 | N=C(N)NCCCC(NC(=O)CN1CCN(S(=O)(=O)c2cccc3c(Cl)cccc23)CC1=O)C(=O)c1nccs1 (stereo not drawn) | 185 | 0.62 | 
6 | N=C(N)NCCCC(NC(=O)CN1CCN(S(=O)(=O)c2cccc3cccnc23)CC1=O)C(=O)c1nccs1 (stereo not drawn) | 569 | 2 | Ki (Coagulation factor X [12]): 4.4 nM; IC50 [1]: 150 nM; 2x TG [2]: 2.5 µM; k off (Coagulation factor X [3]): 0.107 s⁻¹; k on (Coagulation factor X [3]): 2.9e+06 M⁻¹ s⁻¹; IC50 (Serine protease 1): 2 nM; half-life [4]: 29 min; IC50 [5]: 240 nM; 2x APTT [6]: 2 µM; IC50 (Plasminogen): 10 nM; IC50 [7]: > 180000 nM; 2x PT [8]: 10.4 µM; Plasma concentration (Oryctolagus cuniculus [9]): 0.4 µM; Inhibition (Oryctolagus cuniculus [10]): 0%
7 | N=C(N)NCCCC(NC(=O)CN1CCN(S(=O)(=O)CCc2cccc3ccccc23)CC1=O)C(=O)c1nccs1 (stereo not drawn) | 375 | 3 | 
8 | N=C(N)NCCC[C@@H](NC(=O)CN1CCN(C(=O)c2ccccc2)CC1=O)C(=O)c1nccs1 | 7000 | 320 | 
9 | N=C(N)NCCC[C@@H](NC(=O)Cn1cccc(NS(=O)(=O)Cc2ccccc2)c1=O)C(=O)c1nccs1 | 8 |  | 
10 | N=C(N)NCCCC(NC(=O)CN1CCN(S(=O)(=O)c2ccc(Cl)c(Cl)c2)CC1=O)C(=O)c1nccs1 (stereo not drawn) | 1000 | 1 | 
11 | N=C(N)NCCCC(NC(=O)CN1CCN(S(=O)(=O)c2ccc3ccccc3c2)CC1=O)C(=O)c1nccs1 (stereo not drawn) | 6000 | 8 | Ki (Coagulation factor X [12]): 2.7 nM; IC50 [1]: 1850 nM; 2x TG [2]: inactive; k off (Coagulation factor X [3]): 0.132 s⁻¹; k on (Coagulation factor X [3]): 6.3e+06 M⁻¹ s⁻¹; IC50 (Serine protease 1): 39.1 nM; half-life [4]: 15 min; IC50 [5]: 390 nM; 2x APTT [6]: 13.5 µM; IC50 (Plasminogen): 6960 nM; IC50 [7]: > 180000 nM; 2x PT [8]: 14.5 µM; Plasma concentration (Oryctolagus cuniculus [9]): 0.8 µM; Inhibition (Oryctolagus cuniculus [10]): 0%
12 | CC(=O)Nc1nc(C)c(S(=O)(=O)N2CCN(CC(=O)NC(CCCN=C(N)N)C(=O)c3nccs3)C(=O)C2)s1 (stereo not drawn) | 4000 | 58 | 
13 | N=C(N)NCCCC(NC(=O)CN1CCN(S(=O)(=O)c2ccc(F)cc2)CC1=O)C(=O)c1nccs1 (stereo not drawn) | 751 | 2 | 
14 | N=C(N)NCCC[C@@H](NC(=O)CN1CCN(S(=O)(=O)c2ccc(Cl)cc2)CC1=O)C(=O)c1nccs1 | 1000 |  | IC50 [1]: 1880 nM; 2x TG [2]: 0.52 µM; k off (Coagulation factor X [3]): 0.19 s⁻¹; k on (Coagulation factor X [3]): 3.4e+06 M⁻¹ s⁻¹; IC50 (Serine protease 1): 10.8 nM; half-life [4]: 22 min; IC50 [5]: 406 nM; 2x APTT [6]: 4.2 µM; IC50 (Plasminogen): 10700 nM; IC50 [7]: > 180000 nM; 2x PT [8]: 11.2 µM; Plasma concentration (Oryctolagus cuniculus [9]): 0.5 µM; Inhibition (Oryctolagus cuniculus [10]): 90%
15 | N=C(N)NCCC[C@@H](NC(=O)CN1CCC[C@H](NS(=O)(=O)Cc2ccccc2)C1=O)C(=O)c1nccs1 | 138 | 29 | 
16 | N=C(N)NCCCC(NC(=O)CN1CCN(S(=O)(=O)c2ccc([N+](=O)[O-])cc2)CC1=O)C(=O)c1nccs1 (stereo not drawn) | 3000 | 6 | 
17 | N=C(N)NCCCC(NC(=O)CN1CCN(S(=O)(=O)c2cccc(Cl)c2)CC1=O)C(=O)c1nccs1 (stereo not drawn) | 134 | 5 | 
18 | N=C(N)NCCC[C@@H](NC(=O)CN1CCN(C(=O)Cc2ccc(Cl)cc2)CC1=O)C(=O)c1nccs1 | 11000 | 17 | 
19 | N=C(N)NCCC[C@@H](NC(=O)CN1CCNCC1=O)C(=O)c1nccs1 | 220000 | 2000 | 
20 | N=C(N)NCCCC(NC(=O)CN1CCN(S(=O)(=O)c2ccc(-c3ccccn3)s2)CC1=O)C(=O)c1nccs1 (stereo not drawn) | 4000 | 4 | 
21 | N=C(N)NCCCC(NC(=O)CN1CCN(S(=O)(=O)c2ccc(N)cc2)CC1=O)C(=O)c1nccs1 (stereo not drawn) | 5000 | 6 | 
22 | CC(=O)Nc1ccc(S(=O)(=O)N2CCN(CC(=O)NC(CCCNC(=N)N)C(=O)c3nccs3)C(=O)C2)cc1 (stereo not drawn) | 5000 | 116 | 
23 | N=C(N)NCCC[C@@H](NC(=O)CN1CCN(S(=O)(=O)Cc2ccccc2)CCC1=O)C(=O)c1nccs1 | 2000 | 5 | 
24 | COc1ccc(S(=O)(=O)N2CCN(CC(=O)NC(CCCNC(=N)N)C(=O)c3nccs3)C(=O)C2)cc1 (stereo not drawn) | 792 | 0.89 | 
25 | N=C(N)NCCC[C@@H](NC(=O)CN1CCN(S(=O)(=O)c2ccccc2)CC1=O)C(=O)c1nccs1 | 417 | 8 | 

More lines, main results first:

Row | IC50 (Prothrombin) [nM] | IC50 (Coagulation factor X [11]) [nM] | Structure (SMILES) | further results
26 | 5000 | 118 | N=C(N)NCCC[C@@H](NC(=O)CN1CCN(C(=O)c2ccc(Cl)cc2)CC1=O)C(=O)c1nccs1 | 
27 | 809 | 0.7 | N=C(N)NCCCC(NC(=O)CN1CCN(S(=O)(=O)c2ccc(Br)cc2)CC1=O)C(=O)c1nccs1 (stereo not drawn) | 
28 | 870 | 2 | N=C(N)NCCC[C@@H](NC(=O)CNC(=O)[C@H](Cc1c[nH]c2ccccc12)NS(=O)(=O)Cc1ccccc1)C(=O)c1nccs1 | 
29 | 3000 | 32 | N#Cc1ccc(S(=O)(=O)N2CCN(CC(=O)NC(CCCNC(=N)N)C(=O)c3nccs3)C(=O)C2)cc1 (stereo not drawn) | 
30 | 669 | 69 | Cc1nsc(C)c1S(=O)(=O)N1CCN(CC(=O)NC(CCCNC(=N)N)C(=O)c2nccs2)C(=O)C1 (stereo not drawn) | 
31 | 573 | 1 | N=C(N)NCCCC(NC(=O)CN1CCN(S(=O)(=O)c2cc(Cl)c(Cl)cc2Cl)CC1=O)C(=O)c1nccs1 (stereo not drawn) | 
32 | 6000 | 10 | N=C(N)NCCCC(NC(=O)CN1CCN(S(=O)(=O)c2ccc(C(F)(F)F)cc2)CC1=O)C(=O)c1nccs1 (stereo not drawn) | 
33 | 7000 | 10 | N=C(N)NCCCC(NC(=O)CN1CCN(S(=O)(=O)c2ccc(NO)cc2)CC1=O)C(=O)c1nccs1 (stereo not drawn) | 
34 | 17000 | 510 | N=C(N)NCCCC(NC(=O)CN1CCN(S(=O)(=O)c2ccc(C(=O)O)cc2)CC1=O)C(=O)c1nccs1 (stereo not drawn) | 
35 | 118 | 2 | N=C(N)NCCCC(NC(=O)CN1CCN(S(=O)(=O)c2cccc3ccccc23)CC1=O)C(=O)c1nccs1 (stereo not drawn) | 
36 | 14000 | 771 | N=C(N)NCCC[C@@H](NC(=O)CN1CCN(Cc2ccccc2)CC1=O)C(=O)c1nccs1 | 
37 | 7000 | 13 | N=C(N)NCCCC(NC(=O)CN1CCN(S(=O)(=O)/C=C/c2ccccc2)CC1=O)C(=O)c1nccs1 (stereo not drawn) | 
38 | 4000 | 85 | CS(=O)(=O)c1ccc(S(=O)(=O)N2CCN(CC(=O)NC(CCCN=C(N)N)C(=O)c3nccs3)C(=O)C2)cc1 (stereo not drawn) | 
39 | 4000 | 38 | N#Cc1c(Cl)cccc1Oc1ccc(S(=O)(=O)N2CCN(CC(=O)NC(CCCNC(=N)N)C(=O)c3nccs3)C(=O)C2)cc1 (stereo not drawn) | 
40 | 267 | 1 | N=C(N)NCCCC(NC(=O)CN1CCN(S(=O)(=O)c2cccc3cnccc23)CC1=O)C(=O)c1nccs1 (stereo not drawn) | 
41 | 2000 | 21 | N=C(N)NCCC[C@@H](NC(=O)CN1CCN(C(=O)Cc2ccccc2)CC1=O)C(=O)c1nccs1 | 
42 | > 500000 | 24000 | N=C(N)NCCC[C@@H](NC(=O)CN1CCN(S(=O)(=O)Cc2ccccc2)CC1)C(=O)c1nccs1 | 

Source: ChEMBL document CHEMBL1136598, “Design, synthesis, and structure-activity relationships of unsubstituted piperazinone-based transition state factor Xa inhibitors” (Bioorg Med Chem Lett, 2003)
